Measurements from patent US11555012B2 (Nimbus Artemis, Inc., priority 2018, dated 2023).

These molecules were tested against ACL (Homo sapiens (Human), UniProt P53396) (assay: ADP-Glo Assay).
ACL, sequence (P53396 other isoform, or with tags, fused parts or gaps isoform P53396-2): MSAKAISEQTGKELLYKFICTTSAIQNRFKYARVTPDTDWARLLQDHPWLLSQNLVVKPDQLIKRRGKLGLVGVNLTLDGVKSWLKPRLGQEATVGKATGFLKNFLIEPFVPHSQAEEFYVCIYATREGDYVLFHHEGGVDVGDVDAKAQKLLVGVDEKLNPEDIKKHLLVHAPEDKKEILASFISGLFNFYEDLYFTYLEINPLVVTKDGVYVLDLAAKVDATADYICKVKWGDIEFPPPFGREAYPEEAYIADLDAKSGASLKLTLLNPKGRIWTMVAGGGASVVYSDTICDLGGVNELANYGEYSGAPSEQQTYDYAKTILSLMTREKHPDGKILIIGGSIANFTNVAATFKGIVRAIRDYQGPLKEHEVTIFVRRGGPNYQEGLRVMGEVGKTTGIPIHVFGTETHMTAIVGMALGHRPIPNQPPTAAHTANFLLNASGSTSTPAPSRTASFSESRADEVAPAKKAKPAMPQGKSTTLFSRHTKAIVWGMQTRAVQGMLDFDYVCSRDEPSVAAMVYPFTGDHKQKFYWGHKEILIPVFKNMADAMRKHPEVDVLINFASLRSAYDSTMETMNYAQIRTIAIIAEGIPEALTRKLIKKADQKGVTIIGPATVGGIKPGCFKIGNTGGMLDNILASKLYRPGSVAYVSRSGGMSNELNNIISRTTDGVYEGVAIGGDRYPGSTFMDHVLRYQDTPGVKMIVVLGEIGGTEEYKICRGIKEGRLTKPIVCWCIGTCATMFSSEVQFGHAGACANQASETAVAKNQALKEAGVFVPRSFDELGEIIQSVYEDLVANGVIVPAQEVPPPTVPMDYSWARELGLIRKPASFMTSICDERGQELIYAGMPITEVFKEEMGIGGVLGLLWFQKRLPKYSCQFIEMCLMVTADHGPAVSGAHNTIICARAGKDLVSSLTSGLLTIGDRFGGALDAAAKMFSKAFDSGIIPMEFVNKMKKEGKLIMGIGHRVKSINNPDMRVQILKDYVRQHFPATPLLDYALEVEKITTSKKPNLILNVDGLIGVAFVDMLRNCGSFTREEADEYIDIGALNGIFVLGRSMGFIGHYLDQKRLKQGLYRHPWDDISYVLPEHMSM

First: CCC(=O)Oc1c(Cl)cc(C(=O)OC)cc1S(=O)(=O)Nc1cc(-c2ccccc2)ccc1F [I-120, Methyl 3-chloro-5-([4-fluoro-[1,1-biphenyl]-3-yl]sulfamoyl)-4-(propanoyloxy)benzoate]
Second: CNC(=O)COc1c(Cl)cc(Cl)cc1S(=O)(=O)Nc1cc(-c2ccccc2)ccc1F [I-152, 2-(2,4-dichloro-6-(N-(4-fluoro-[1,1′-biphenyl]-3-yl)sulfamoyl)phenoxy)-N-methylacetamide]
The IC50 of the first is lower: 0.05 to 0.5 µM for the first, 0.5 to 20 µM for the second. The first is the more potent here.

`CCC(=O)Oc1ccccc1S(=O)(=O)Nc1cc(-c2ccccc2)ccc1F` [I-121, 2-[(2-fluoro-5-phenylphenyl)sulfamoyl]phenyl Propanoate] and `NC(=O)COc1c(Cl)cc(Cl)cc1S(=O)(=O)Nc1cc(-c2ccccc2)ccc1F` [I-151, 2-(2,4-dichloro-6-(N-(4-fluoro-[1,1′-biphenyl]-3-yl)sulfamoyl)phenoxy)acetamide] fall in the same range of IC50: 0.5 to 20 µM for the first, 0.5 to 20 µM for the second.

`O=S(=O)(Nc1cc(-c2ccccc2)ccc1F)c1cc(Cl)cc(Cl)c1OC1COC1` [I-122, 3,5-dichloro-N-(4-fluoro-[1,1′-biphenyl]-3-yl)-2-(oxetan-3-yloxy)benzenesulfonamide] and `O=S(=O)(Nc1cc(-c2ccccc2)ccc1F)c1cc(Cl)cc(Cl)c1F` [I-207, 3,5-dichloro-2-fluoro-N-[4-fluoro-[1,1-biphenyl]-3-yl]benzene-1-sulfonamide] fall in the same range of IC50: 0.5 to 20 µM for the first, 0.5 to 20 µM for the second.

`O=S(=O)(NCc1cc(-c2ccccc2)ccc1F)c1cc(Cl)cc(Cl)c1O` [I-125, 3,5-dichloro-N-((4-fluoro-[1,1′-biphenyl]-3-yl)methyl)-2-hydroxybenzenesulfonamide] and `CC(C)(C)OC(=O)COc1ccc(-c2ccccc2)cc1NS(=O)(=O)c1cc(Cl)cc(Cl)c1O` [I-214, tert-butyl 2-[[3-(3,5-dichloro-2-hydroxybenzenesulfonamido)-[1,1-biphenyl]-4-yl]oxy]acetate] fall in the same range of IC50: 0.5 to 20 µM for the first, 0.5 to 20 µM for the second.

`Cc1c(C(=O)O)cc(Cl)c(O)c1S(=O)(=O)Nc1cc(-c2ccccc2)c(F)cc1F` [I-132, 5-chloro-3-([4,6-difluoro-[1,1-biphenyl]-3-yl]sulfamoyl)-4-hydroxy-2-methylbenzoic Acid] and `O=C(O)c1cc(Cl)cc(S(=O)(=O)Nc2cc(-c3ccccc3)c(F)cc2F)c1` [I-147, 3-chloro-5-(N-(4,6-difluoro-[1,1′-biphenyl]-3-yl)sulfamoyl)benzoic Acid] fall in the same range of IC50: 0.5 to 20 µM for the first, 0.5 to 20 µM for the second.

`O=C(Nc1cc(-c2ccccc2)c(F)cc1F)c1cc(C(=O)N2CCCC2)cc(Cl)c1O` [I-150, 3-chloro-N-(4,6-difluoro-[1,1′-biphenyl]-3-yl)-2-hydroxy-5-(pyrrolidine-1-carbonyl)benzamide] and `O=C(O)c1cc(Cl)c(O)c(C(=O)Nc2cc(-c3ccccc3)c(F)cc2F)c1` [I-155, 3-chloro-5-((4,6-difluoro-[1,1′-biphenyl]-3-yl)carbamoyl)-4-hydroxybenzoic Acid] fall in the same range of IC50: 0.5 to 20 µM for the first, 0.5 to 20 µM for the second.

`O=C(COc1c(Cl)cc(Cl)cc1S(=O)(=O)Nc1cc(-c2ccccc2)ccc1F)N1CCC1` [I-153, 2-(2-(azetidin-1-yl)-2-oxoethoxy)-3,5-dichloro-N-(4-fluoro-[1,1′-biphenyl]-3-yl)benzenesulfonamide] and `COc1c(Br)cc(C(=O)N2CCC2)cc1S(=O)(=O)Nc1cc(-c2ccccc2)ccc1F` [I-154, 5-(azetidine-1-carbonyl)-3-bromo-N-(4-fluoro-[1,1′-biphenyl]-3-yl)-2-methoxybenzenesulfonamide] fall in the same range of IC50: 0.5 to 20 µM for the first, 0.5 to 20 µM for the second.

`O=S(=O)(Nc1cc(-c2ccccc2)c(F)cc1F)c1cc(Cl)ccc1F` [I-156, 5-chloro-N-(4,6-difluoro-[1,1′-biphenyl]-3-yl)-2-fluorobenzenesulfonamide] and `O=S(=O)(Nc1cc(-c2ccccc2)c(F)cc1F)c1cccc(Cl)c1F` [I-195, 3-chloro-N-(4,6-difluoro-[1,1′-biphenyl]-3-yl)-2-fluorobenzenesulfonamide] fall in the same range of IC50: 0.5 to 20 µM for the first, 0.5 to 20 µM for the second.

`CC(=O)NCCNC(=O)c1cc(Cl)c(O)c(S(=O)(=O)Nc2cc(-c3ccccc3)c(F)cc2F)c1` [I-161, N-(2-[[3-chloro-5-([4,6-difluoro-[1,1-biphenyl]-3-yl]sulfamoyl)-4-hydroxyphenyl]formamido]ethyl)acetamide] and `O=C(O)COc1c(Cl)cc(C(=O)N2CCC2)cc1S(=O)(=O)Nc1cc(-c2ccccc2)c(F)cc1F` [I-199, 2-[4-(azetidine-1-carbonyl)-2-chloro-6-([4,6-difluoro-[1,1-biphenyl]-3-yl]sulfamoyl)phenoxy]acetic Acid] fall in the same range of IC50: 0.5 to 20 µM for the first, 0.5 to 20 µM for the second.

`CC(C)Oc1ccc(F)cc1NS(=O)(=O)c1cc(Cl)cc(Cl)c1O` [I-163] and `CC(C)n1ncc2cc(NS(=O)(=O)c3cc(Cl)cc(Cl)c3O)ccc21` [I-169] fall in the same range of IC50: 0.5 to 20 µM for the first, 0.5 to 20 µM for the second.

`O=S(=O)(Nc1cc(-n2nnnc2C2CC2)ccc1F)c1cc(Cl)cc(Cl)c1O` [I-164] and `O=S(=O)(Nc1cccc2cccc(F)c12)c1cc(Cl)cc(Cl)c1O` [I-186] fall in the same range of IC50: 0.5 to 20 µM for the first, 0.5 to 20 µM for the second.

`CC(C)Cc1csc(NS(=O)(=O)c2cc(Cl)cc(Cl)c2O)c1C(=O)N1CCOCC1` [I-165] and `O=S(=O)(Nc1cc(F)cc(N2CCOCC2)c1)c1cc(Cl)cc(Cl)c1O` [I-182] fall in the same range of IC50: 0.5 to 20 µM for the first, 0.5 to 20 µM for the second.

`COc1ccc(CN(C)S(=O)(=O)c2cc(Cl)cc(Cl)c2O)cc1` [I-166] and `COc1cccc(CCNS(=O)(=O)c2cc(Cl)cc(Cl)c2O)c1` [I-188] fall in the same range of IC50: 0.5 to 20 µM for the first, 0.5 to 20 µM for the second.

`O=S(=O)(N[C@H]1C[C@H](c2ccc(F)cc2)C1)c1cc(Cl)cc(Cl)c1O` [I-167] and `O=S(=O)(NC1(c2ccc(F)cc2)CC1)c1cc(Cl)cc(Cl)c1O` [I-180] fall in the same range of IC50: 0.5 to 20 µM for the first, 0.5 to 20 µM for the second.

`O=S(=O)(NCc1nc(-c2cccc(F)c2)no1)c1cc(Cl)cc(Cl)c1O` [I-168] and `Cc1c(CNS(=O)(=O)c2cc(Cl)cc(Cl)c2O)n(C)c2ccccc12` [I-181] fall in the same range of IC50: 0.5 to 20 µM for the first, 0.5 to 20 µM for the second.

`O=S(=O)(Nc1cnn(-c2ccccc2)c1)c1cc(Cl)cc(Cl)c1O` [I-170] and `O=S(=O)(Nc1cccc(-n2nccn2)c1)c1cc(Cl)cc(Cl)c1O` [I-177] fall in the same range of IC50: 0.5 to 20 µM for the first, 0.5 to 20 µM for the second.

`O=S(=O)(Nc1ccc(OCc2ccccc2)cc1)c1cc(Cl)cc(Cl)c1O` [I-171] and `O=S(=O)(Nc1cnc(-c2ccccc2)s1)c1cc(Cl)cc(Cl)c1O` [I-189] fall in the same range of IC50: 0.5 to 20 µM for the first, 0.5 to 20 µM for the second.

`CC(C)(C)Cc1nc2cc(NS(=O)(=O)c3cc(Cl)cc(Cl)c3O)ccc2o1` [I-172] and `CC(C)NC(=O)c1ccc(NS(=O)(=O)c2cc(Cl)cc(Cl)c2O)cc1` [I-178] fall in the same range of IC50: 0.5 to 20 µM for the first, 0.5 to 20 µM for the second.

`CC(C)(CNS(=O)(=O)c1cc(Cl)cc(Cl)c1O)c1cccs1` [I-173] and `O=S(=O)(NCC1COc2ccccc2C1)c1cc(Cl)cc(Cl)c1O` (centres unmarked) [I-185] fall in the same range of IC50: 0.5 to 20 µM for the first, 0.5 to 20 µM for the second.

`NC(=O)c1sc2ccccc2c1NS(=O)(=O)c1cc(Cl)cc(Cl)c1O` [I-174] and `CN(C)C(=O)C(NS(=O)(=O)c1cc(Cl)cc(Cl)c1O)c1ccccc1` (centres unmarked) [I-179] fall in the same range of IC50: 0.5 to 20 µM for the first, 0.5 to 20 µM for the second.

`CC(=O)N1CCCN(c2ccc(F)cc2NS(=O)(=O)c2cc(Cl)cc(Cl)c2O)CC1` [I-175] and `O=C(c1cc(Cl)c(O)c(NS(=O)(=O)c2cc(-c3ccccc3)ccc2F)c1)N1CCC1` [I-215, N-[5-(azetidine-1-carbonyl)-3-chloro-2-hydroxyphenyl]-4-fluoro-[1,1-biphenyl]-3-sulfonamide] fall in the same range of IC50: 0.5 to 20 µM for the first, 0.5 to 20 µM for the second.

`O=S(=O)(NC1CCN(c2nc3ccccc3s2)CC1)c1cc(Cl)cc(Cl)c1O` [I-176] and `O=S(=O)(NC1CCN(c2ccccc2)C1)c1cc(Cl)cc(Cl)c1O` (centres unmarked) [I-183] fall in the same range of IC50: 0.5 to 20 µM for the first, 0.5 to 20 µM for the second.

`CC(NS(=O)(=O)c1cc(Cl)cc(Cl)c1O)c1ccc2c(c1)NC(=O)CO2` (centres unmarked) [I-184] and `O=S(=O)(NCC1(Cc2ccc(F)cc2)CC1)c1cc(Cl)cc(Cl)c1O` [I-187] fall in the same range of IC50: 0.5 to 20 µM for the first, 0.5 to 20 µM for the second.

`O=S(=O)(Nc1cc(-c2ccccc2)c(F)cc1F)c1cccc(Cl)c1Cl` [I-190, 2,3-dichloro-N-[4,6-difluoro-[1,1-biphenyl]-3-yl]benzene-1-sulfonamide] and `N#Cc1cc(S(=O)(=O)Nc2cc(-c3ccccc3)c(F)cc2F)ccc1Cl` [I-196, 4-chloro-3-cyano-N-(4,6-difluoro-[1,1′-biphenyl]-3-yl) benzenesulfonamide] fall in the same range of IC50: 0.5 to 20 µM for the first, 0.5 to 20 µM for the second.

`COC(=O)c1cccc(S(=O)(=O)Nc2cc(-c3ccccc3)c(F)cc2F)c1` [I-191, methyl 3-([4,6-difluoro-[1,1-biphenyl]-3-yl]sulfamoyl)benzoate] and `O=S(=O)(Nc1cc(-c2ccccc2)c(F)cc1F)c1cc(Cl)cc(C(F)(F)F)c1` [I-204, 3-chloro-N-[4,6-difluoro-[1,1-biphenyl]-3-yl]-5-(trifluoromethyl)benzene-1-sulfonamide] fall in the same range of IC50: 0.5 to 20 µM for the first, 0.5 to 20 µM for the second.

`O=C(c1cc(Cl)c(O)c(SCc2cc(-c3ccccc3)c(F)cc2F)c1)N1CCCC1` [I-205, (3-chloro-5-(((4,6-difluoro-[1,1′-biphenyl]-3-yl)methyl)thio)-4-hydroxyphenyl)(pyrrolidin-1-yl)methanone] and `CN(C)C(=O)Oc1c(Cl)cc(C(=O)N2CCC2)cc1S(=O)(=O)Nc1cc(-c2ccccc2)c(F)cc1F` [I-209, 4-(azetidine-1-carbonyl)-2-chloro-6-([4,6-difluoro-[1,1-biphenyl]-3-yl]sulfamoyl)phenyl N,N-dimethylcarbamate] fall in the same range of IC50: 0.5 to 20 µM for the first, 0.5 to 20 µM for the second.

`CC(C)(C)C(=O)Oc1c(Cl)cc(C(=O)N2CCC2)cc1S(=O)(=O)Nc1cc(-c2ccccc2)c(F)cc1F` [I-210, 4-(azetidine-1-carbonyl)-2-chloro-6-(N-(4,6-difluoro-[1,1′-biphenyl]-3-yl)sulfamoyl)phenyl Pivalate] and `O=C(Oc1c(Cl)cc(C(=O)N2CCC2)cc1S(=O)(=O)N(C(=O)C1CC1)c1cc(-c2ccccc2)c(F)cc1F)C1CC1` [I-217, 4-(azetidine-1-carbonyl)-2-chloro-6-[(1-cyclopropyl-N-[4,6-difluoro-[1,1-biphenyl]-3-yl]formamido)sulfonyl]phenylcyclopropanecarboxylate] fall in the same range of IC50: 0.5 to 20 µM for the first, 0.5 to 20 µM for the second.

`O=C(Nc1cc(C(=O)N2CCC2)cc(Cl)c1O)c1cc(-c2ccccc2)ccc1F` [I-216, N-(5-(azetidine-1-carbonyl)-3-chloro-2-hydroxyphenyl)-4-fluoro-[1,1′-biphenyl]-3-carboxamide] and `N#Cc1cc(Cl)cc(S(=O)(=O)Nc2cc(-c3ccccc3)ccc2O)c1` [I-218, 3-chloro-5-cyano-N-[4-hydroxy-[1,1-biphenyl]-3-yl]benzene-1-sulfonamide] fall in the same range of IC50: 0.5 to 20 µM for the first, 0.5 to 20 µM for the second.
